Target: T1, human GCS (glucosylceramide synthase) (Homo sapiens, UniProt Q16739)
T1 construct: made in house; host or cells: Expi293F cells (transient expression; microsome fraction)
T1 sequence (Q16739 1-394): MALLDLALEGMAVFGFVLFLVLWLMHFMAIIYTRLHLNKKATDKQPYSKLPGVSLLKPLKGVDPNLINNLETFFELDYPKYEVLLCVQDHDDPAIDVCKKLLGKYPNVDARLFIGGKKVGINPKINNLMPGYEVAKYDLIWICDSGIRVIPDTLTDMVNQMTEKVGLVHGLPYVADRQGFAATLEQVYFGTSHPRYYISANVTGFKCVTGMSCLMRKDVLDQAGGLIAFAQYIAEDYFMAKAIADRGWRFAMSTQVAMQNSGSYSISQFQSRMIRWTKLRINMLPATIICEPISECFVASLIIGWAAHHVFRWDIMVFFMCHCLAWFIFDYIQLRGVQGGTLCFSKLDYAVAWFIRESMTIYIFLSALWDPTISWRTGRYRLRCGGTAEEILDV
Assay: Glucosylceramide Synthase (GCS) Assay
Assay type: biochemical
Conditions: test compound 10 μM; microsome fraction of Expi293F cells expressing human GCS; 1.7 μM UDP-glucose, 3 μM C8 ceramide; room temperature 60 min; C8 glucosylceramide by Rapidfire MS/MS; read-out: GCS enzyme inhibitory rate at 10 μM (%)
In short: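 Enzyme source was a microsome fraction from Expi293F cells transiently expressing human GCS. Reaction ran 60 min at room temperature in 20 mM Tris pH 7.5 with 1.7 μM UDP-glucose (Km) and 3 μM liposomal C8 ceramide, compound at 10 μM final. C8 glucosylceramide quantified by RapidFire MS/MS; inhibition scaled between enzyme-free and DMSO controls.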

SMILES | inhibition at 10 µM [%]
CC(C)(O)c1ccc(NC(=O)c2cccn(-c3cccnc3OCC(F)(F)F)c2=O)cc1 [Example 114, N-[4-(2-hydroxypropan-2-yl)phenyl]-2-oxo-2′-(2,2,2-trifluoroethoxy)-2H-[1,3′-bipyridine]-3-carboxamide] | 96
O=C(Nc1cnn(CC2(F)CC2)c1)c1cccn(-c2ccc(F)cc2OCC(F)(F)F)c1=O [Example 66, N-{1-[(1-fluorocyclopropyl)methyl]-1H-pyrazol-4-yl}-1-[4-fluoro-2-(2,2,2-trifluoroethoxy)phenyl]-2-oxo-1,2-dihydropyridine-3-carboxamide] | 60
CC(C)(O)c1ccc(NC(=O)c2cccn(-c3ccccc3OCC(F)(F)F)c2=O)cc1 [Example 63] | 100
N#Cc1ccc(NC(=O)c2cccn(-c3ccc(F)cc3OCC(F)(F)F)c2=O)cc1 [Example 41, N-(4-cyanophenyl)-1-[4-fluoro-2-(2,2,2-trifluoroethoxy)phenyl]-2-oxo-1,2-dihydropyridine-3-carboxamide] | 88
O=C(Nc1cnc(OC(F)F)nc1)c1cccn(-c2ccc(F)cc2OCC(F)(F)F)c1=O [Example 51, N-[2-(difluoromethoxy)pyrimidin-5-yl]-1-[4-fluoro-2-(2,2,2-trifluoroethoxy)phenyl]-2-oxo-1,2-dihydropyridine-3-carboxamide] | 84
CC(=O)c1cc(C(=O)Nc2ccc(OC(F)F)cc2)c(=O)n(-c2ccccc2OCC(F)(F)F)n1 [Example 197, 6-acetyl-N-[4-(difluoromethoxy)phenyl]-3-oxo-2-[2-(2,2,2-trifluoroethoxy)phenyl]-2,3-dihydropyridazine-4-carboxamide] | 99
N#CCc1ccc(NC(=O)c2cccn(-c3ccccc3OCC(F)(F)F)c2=O)cn1 [Example 86, N-[6-(cyanomethyl)pyridin-3-yl]-2-oxo-1-[2-(2,2,2-trifluoroethoxy)phenyl]-1,2-dihydropyridine-3-carboxamide] | 88
COc1cc(F)ccc1-n1nccc(C(=O)Nc2ccc(OCC(F)(F)F)nc2)c1=O [Example 23, 2-(4-fluoro-2-methoxyphenyl)-3-oxo-N-[6-(2,2,2-trifluoroethoxy)pyridin-3-yl]-2,3-dihydropyridazine-4-carboxamide] | 87
O=C(Nc1ccc(Oc2ccccc2)cc1)c1cccn(-c2ccc(F)cc2N2CCOCC2)c1=O [Example 17, 1-[4-fluoro-2-(morpholin-4-yl)phenyl]-2-oxo-N-(4-phenoxyphenyl)-1,2-dihydropyridine-3-carboxamide] | 81
CC(O)c1ccc(NC(=O)c2ccnn(-c3ccccc3OCC(F)(F)F)c2=O)nc1 (racemic) [Example 140, rac-N-[5-(1-hydroxyethyl)pyridin-2-yl]-3-oxo-2-[2-(2,2,2-trifluoroethoxy)phenyl]-2,3-dihydropyridazine-4-carboxamide] | 87
COc1cc(F)ccc1-n1cccc(C(=O)Nc2ccc(OC(F)(F)F)cc2)c1=O [Example 6, 1-(4-fluoro-2-methoxyphenyl)-2-oxo-N-[4-(trifluoromethoxy)phenyl]-1,2-dihydropyridine-3-carboxamide] | 52
O=C(Nc1ccc(OCC(F)(F)F)nc1)c1cccn(-c2ccc(F)cc2N2CCOCC2)c1=O [Example 25, 1-[4-fluoro-2-(morpholin-4-yl)phenyl]-2-oxo-N-[6-(2,2,2-trifluoroethoxy)pyridin-3-yl]-1,2-dihydropyridine-3-carboxamide] | 81
Cc1cc(C(=O)Nc2ccc(C(C)(C)O)cc2)c(=O)n(-c2ccc(F)cc2OCC(F)(F)F)c1 [Example 107, 1-[4-fluoro-2-(2,2,2-trifluoroethoxy)phenyl]-N-[4-(2-hydroxypropan-2-yl)phenyl]-5-methyl-2-oxo-1,2-dihydropyridine-3-carboxamide] | 100
CC(O)(c1ccc(NC(=O)c2cccn(-c3ccnnc3OCC(F)(F)F)c2=O)cn1)C(F)(F)F (racemic) [Example 121, rac-2-oxo-1-[3-(2,2,2-trifluoroethoxy)pyridazin-4-yl]-N-[6-(1,1,1-trifluoro-2-hydroxypropan-2-yl)pyridin-3-yl]-1,2-dihydropyridine-3-carboxamide] | 90
O=C(Nc1ccc(C(O)C2CC2)nc1)c1cccn(-c2ccccc2OCC(F)(F)F)c1=O (racemic) [Example 76, rac-N-{6-[cyclopropyl(hydroxy)methyl]pyridin-3-yl}-2-oxo-1-[2-(2,2,2-trifluproethoxy)phenyl]-1,2-dihydropyridine-3-carboxamide] | 98
CC(C)(O)c1ccc(NC(=O)c2ccnn(-c3ccc(F)cc3OCC(F)(F)F)c2=O)cc1 [Example 95, 2-[4-fluoro-2-(2,2,2-trifluoroethoxy)phenyl]-N-[4-(2-hydroxypropan-2-yl)phenyl]-3-oxo-2,3-dihydropyridazine-4-carboxamide] | 99
N#Cc1ccc(NC(=O)c2cccn(-c3ccccc3OCC(F)(F)F)c2=O)cn1 [Example 24, N-(6-cyanopyridin-3-yl)-2-oxo-1-[2-(2,2,2-trifluoroethoxy)phenyl]-1,2-dihydropyridine-3-carboxamide] | 98
CC(C)(O)c1ccc(NC(=O)c2cccn(-c3ccc(F)c(F)c3OCC(F)(F)F)c2=O)cc1 [Example 111, 1-[3,4-difluoro-2-(2,2,2-trifluoroethoxy)phenyl]-N-[4-(2-hydroxypropan-2-yl)phenyl]-2-oxo-1,2-dihydropyridine-3-carboxamide] | 98
COc1cc(F)ccc1-n1cccc(C(=O)Nc2ccc(Oc3ccccc3)cc2)c1=O [Example 3, 1-(4-fluoro-2-methoxyphenyl)-2-oxo-N-(4-phenoxyphenyl)-1,2-dihydropyridine-3-carboxamide] | 92

More lines, now with the values ahead:

inhibition at 10 µM [%] | SMILES
99 | O=C(Nc1ccc(COCC(F)(F)F)nc1)c1cccn(-c2ccccc2OCC(F)(F)F)c1=O [Example 74, 2-oxo-N-{6-[(2,2,2-trifluoroethoxy)methyl]pyridin-3-yl}-1-[2-(2,2,2-trifluoroethoxy)phenyl]-1,2-dihydropyridine-3-carboxamide]
100 | Cc1cc(C(=O)Nc2ccc(C(C)(C)O)cc2)c(=O)n(-c2ccccc2OCC(F)F)n1 [Example 136, 2-[2-(2,2-difluoroethoxy)phenyl]-N-[4-(2-hydroxypropan-2-yl)phenyl]-6-methyl-3-oxo-2,3-dihydropyridazine-4-carboxamide]
97 | O=C(Nc1ccc(F)cc1F)c1cn(CC2COC2)nc(-c2ccccc2OCC(F)F)c1=O [Example 181, 6-[2-(2,2-difluoroethoxy)phenyl]-N-(2,4-difluorophenyl)-2-[(oxetan-3-yl)methyl]-5-oxo-2,5-dihydropyridazine-4-carboxamide]
100 | O=C(Nc1ccc(C(O)(C(F)F)C(F)F)nc1)c1cn(CC(F)F)nc(-c2ccccc2OCC(F)F)c1=O [Example 186, 6-[2-(2,2-difluoroethoxy)phenyl]-2-(2,2-difluoroethyl)-5-oxo-N-[6-(1,1,3,3-tetrafluoro-2-hydroxypropan-2-yl)pyridin-3-yl]-2,5-dihydropyridazine-4-carboxamide]
96 | CC(C)(O)c1ccc(NC(=O)c2ccnn(-c3ccccc3OCC(F)F)c2=O)nc1 [Example 132, 2-[2-(2,2-difluoroethoxy)phenyl]-N-[5-(2-hydroxypropan-2-yl)pyridin-2-yl]-3-oxo-2,3-dihydropyridazine-4-carboxamide]
99 | CC(C)(O)c1ccc(NC(=O)c2cn(CC(F)F)nc(-c3ccccc3OCC(F)F)c2=O)cc1 [Example 179, 6-[2-(2,2-difluoroethoxy)phenyl]-2-(2,2-difluoroethyl)-N-[4-(2-hydroxypropan-2-yl)phenyl]-5-oxo-2,5-dihydropyridazine-4-carboxamide]
97 | CC(C)(O)c1ccc(NC(=O)c2ccnn(-c3ccccc3OCC(F)(F)F)c2=O)cn1 [Example 126, N-[6-(2-hydroxypropan-2-yl)pyridin-3-yl]-3-oxo-2-[2-(2,2,2-trifluoroethoxy)phenyl]-2,3-dihydropyridazine-4-carboxamide]
100 | CC(O)c1cc(C(=O)Nc2ccc(OC(F)F)cc2)c(=O)n(-c2ccccc2OCC(F)(F)F)n1 (racemic) [Example 199, rac-N-[4-(difluoromethoxy)phenyl]-6-(1-hydroxyethyl)-3-oxo-2-[2-(2,2,2-trifluoroethoxy)phenyl]-2,3-dihydropyridazine-4-carboxamide]
95 | CC(C)(O)Cn1cc(C(=O)Nc2ccc(OC(F)F)cc2)c(=O)c(-c2ccccc2OCC(F)F)n1 [Example 173, 6-[2-(2,2-difluoroethoxy)phenyl]-N-[4-(difluoromethoxy)phenyl]-2-(2-hydroxy-2-methylpropyl)-5-oxo-2,5-dihydropyridazine-4-carboxamide]
98 | CC(C)(O)COc1ccc(NC(=O)c2cn(C(F)F)nc(-c3ccccc3OCC(F)F)c2=O)cc1 [Example 165, 6-[2-(2,2-difluoroethoxy)phenyl]-2-(difluoromethyl)-N-[4-(2-hydroxy-2-methylpropoxy)phenyl]-5-oxo-2,5-dihydropyridazine-4-carboxamide]

Source: patent publication US20220289679A1, “HETEROCYCLIC COMPOUND” (Takeda Pharmaceutical Company Limited, priority 2019, published 2022)
